The source of these data is patent publication US20240174622A1, “COMPOUND AND RADIOACTIVE LABELING COMPOUND” (NIHON MEDI-PHYSICS CO., LTD., priority 2021, published 2024).

Series [1] is described as follows: Evaluation of distribution coefficient (1-octanol/PBS). In kind it is physicochemical. The following applies: 1-octanol / PBS pH 7.4. The protocol: [^111In]In-PtDA (111 kBq) was added to a mixture of PBS (pH 7.4, 3 mL) and 1-octanol (3 mL), and the mixture was dispersed by vortexing for 2 minutes and then centrifuged at 4000×g for 5 minutes. 1 mL was recovered respectively from the 1-octanol layer and the PBS layer, and the radioactivity of each layer was measured with a gamma counter (n=3).
As the calculation formula, “(Distribution coefficient)=Log10[(radioactivity of 1-octanol layer [kBq])/(radioactivity of PBS layer [kBq])]” was used.

A short description of series [2]: Evaluation of stability in plasma. In kind it is in vitro ADME. The note with it: 37° C., 24 hours. The protocol: A saline (20 μL) solution of [^111In]In-PSMA-DA1 (370 kBq) or [^90Y]Y-PSMA-DA1 (3.7 MBq) was added to mouse plasma (200 μL), and the mixture was allowed to stand at 37° C. for 24 hours (n=3). Then, MeCN (200 μL) was added, and the mixture was centrifuged at 10,000×g for 5 minutes. The supernatant was filtered, and the filtrate was analyzed by reverse phase HPLC under the following conditions.
(Analytical conditions: Cosmosil 5C18-PAQ column (4.6×250 mm); mobile phase: MeCN/H2O/TFA [20/80/0.1 (0 min) to 50/50/0.1 (30 min)]; flow rate: 1 mL/min.)
A saline (20 μL) solution of [^111In]In-PtDA (259 kBq) was added to mouse plasma (200 μL), and the mixture was allowed to stand at 37° C. for 24 hours (n=3). MeCN (400 μL) was added thereto, and the mixture was centrifuged at 10,000×g for 5 minutes. The supernatant was filtered, and the filtrate was analyzed by reverse phase HPLC under the following conditions.
Analytical conditions: Cosmosil 5C18-AR-II column (4.6×150 mm); mobile phase: MeCN/H2O/TFA [10/90/0.1 (0 min) to 70/30/0.1 (30 min)]; flow rate: 1 mL/min.

For series [3], the system named is PC-3 cells (PSMA-negative, human prostate cancer). Put plainly: Binding assay using cultured cells (PC-3). The following applies: 37° C., 1 hour. The format is cell-based. How it is done:
LNCaP cells (PSMA-positive, human prostate cancer) and PC-3 cells (PSMA-negative, human prostate cancer) were used. These cells were purchased from American Type Culture Collection and DS Biomedical, respectively. Each of the cells were cultured in RPMI 1640, which is manufactured by NACALAI TESQUE, INC. and contains antibiotics (penicillin and streptomycin) and 10% inactivated fetal bovine serum, at 37° C. under 5% CO2.
The LNCaP cells and PC-3 cells were each seeded on a 12 well plate at 4.0×10^5 cells/well, and left standing at 37° C. under 5% CO2 for 48 hours.
The culture medium was removed, and an assay medium (0.5% FBS-containing RPMI 1640 medium) solution (1 mL) containing [^111In]In-PSMA-DA1 or [^111In]In-PSMA-DB (37 kBq) was added. Thereafter, the plate was allowed to stand at 37° C. under 5% CO2 for 1 hour. […]
The radioactivity for each of the assay medium and the cell lysate was measured with a gamma counter. Separately, the total protein concentration in the cell lysate was calculated using BCA Protein Assay Kit, which is manufactured by Thermo Fisher Scientific K.K. The value (% ID/mg protein) obtained by dividing the percentage (% ID) of the sample's radioactivity amount to the added radioactivity amount by the total protein amount was calculated for each sample. […]

With `O=C([O-])CN1CCN(C(CCC(=O)NCCC(=O)N2Cc3ccccc3-c3c(nnn3CCOCCOCCOCCOCCC(=O)NCCCC[C@H](NC(=O)N[C@@H](CCC(=O)O)C(=O)O)C(=O)O)-c3ccccc32)C(=O)[O-])CCN(CC(=O)[O-])CCN(C(CCC(=O)N[C@@H](CCCCNC(=O)CCCc2ccc(I)cc2)C(=O)O)C(=O)[O-])CC1.[111In+3]` (stereo partly drawn) [[^111In]In-PtDA], in series [1], the “Log P (distribution coefficient)” value was −3.08±0.02. For the same compound, the “stably present in mouse plasma” value in series [2] is given as at least 95%. Besides, in series [3], the “binding to PC-3 cells” value is 0.15 % ID/mg protein.
